Measurements from ChEMBL document CHEMBL1201862, “PubChem BioAssay data set” (2004).
Active and inactive are the calls of the source.

Experiments:
[1] = target: T1, Type-1 angiotensin II receptor (Homo sapiens, UniProt P30556); test: AT1 receptor antagonists, dose response, selectivity assay for APJ receptor antagonist project, cell-based, uHTS hits (AID 463214); format: functional;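 further: antagonist potency against angiotensin II stimulated AT1 response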
T1 sequence (P30556 whole entry): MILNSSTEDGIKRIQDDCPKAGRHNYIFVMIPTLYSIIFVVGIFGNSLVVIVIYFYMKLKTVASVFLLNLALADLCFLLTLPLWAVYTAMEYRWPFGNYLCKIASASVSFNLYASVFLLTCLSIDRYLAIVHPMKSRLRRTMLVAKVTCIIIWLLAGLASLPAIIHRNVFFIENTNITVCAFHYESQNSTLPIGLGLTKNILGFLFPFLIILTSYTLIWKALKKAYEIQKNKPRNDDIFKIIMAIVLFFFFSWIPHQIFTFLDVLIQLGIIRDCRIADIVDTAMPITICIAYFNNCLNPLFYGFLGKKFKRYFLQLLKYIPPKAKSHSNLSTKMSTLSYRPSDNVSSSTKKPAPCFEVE

Beta-galactosidase = Beta-galactosidase (Escherichia coli, UniProt Q8VNN2); test: PubChem AID 485352; format: functional
Beta-galactosidase, sequence (Q8VNN2 whole entry): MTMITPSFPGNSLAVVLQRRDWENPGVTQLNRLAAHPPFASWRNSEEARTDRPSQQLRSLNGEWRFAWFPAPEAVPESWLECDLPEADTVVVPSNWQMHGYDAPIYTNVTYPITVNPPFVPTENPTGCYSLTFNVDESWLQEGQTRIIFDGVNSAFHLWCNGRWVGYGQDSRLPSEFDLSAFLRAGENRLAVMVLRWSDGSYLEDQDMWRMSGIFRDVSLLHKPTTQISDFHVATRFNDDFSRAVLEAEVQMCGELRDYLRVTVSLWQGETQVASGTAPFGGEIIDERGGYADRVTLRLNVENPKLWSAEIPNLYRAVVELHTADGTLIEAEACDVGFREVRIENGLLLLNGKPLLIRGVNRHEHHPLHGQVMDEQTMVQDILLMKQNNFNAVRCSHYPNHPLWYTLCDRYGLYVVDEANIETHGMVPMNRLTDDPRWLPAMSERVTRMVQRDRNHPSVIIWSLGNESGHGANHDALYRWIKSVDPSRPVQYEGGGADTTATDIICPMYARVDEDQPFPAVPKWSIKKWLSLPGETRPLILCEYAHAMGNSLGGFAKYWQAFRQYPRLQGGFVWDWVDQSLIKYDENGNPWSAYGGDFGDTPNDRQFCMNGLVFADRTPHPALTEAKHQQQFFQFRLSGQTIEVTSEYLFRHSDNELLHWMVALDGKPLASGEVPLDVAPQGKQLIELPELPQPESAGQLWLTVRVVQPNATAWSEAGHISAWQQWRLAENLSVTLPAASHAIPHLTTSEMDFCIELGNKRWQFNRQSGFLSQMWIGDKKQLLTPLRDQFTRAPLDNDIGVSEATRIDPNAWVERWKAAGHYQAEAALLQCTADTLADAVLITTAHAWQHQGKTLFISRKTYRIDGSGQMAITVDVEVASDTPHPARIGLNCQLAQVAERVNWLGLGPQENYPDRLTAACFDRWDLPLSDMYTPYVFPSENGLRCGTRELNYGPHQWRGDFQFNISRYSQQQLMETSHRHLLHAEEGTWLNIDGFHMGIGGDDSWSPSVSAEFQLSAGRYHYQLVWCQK

H4 = test: Luminescence Cell-Based Dose Response HTS to Identify Activators of 5'UTR Stem-Loop Driven Prion Protein mRNA Translation in H4 Neuroglioblastoma Cells. [Related pubchem assays: 1829 (Project Summary), 1814 (Primary HTS)]; format: functional; conditions: Homo sapiens
[2] = Luminescence Cell-Based Dose Response HTS to Identify Activators of Luciferase Translation or Activity in H4 […] Cells. [Related pubchem assays: 1829 (Project Summary), 1814 (Primary HTS)]; format: functional
[3] = Luminescence Cell-Based Dose Confirmation HTS to Identify Activators of 5'UTR Stem-Loop Driven Alpha-Synuclein mRNA Translation in H4 Neuroglioblastoma Cells. [Related pubchem assays: 1829 (Project Summary), 1814 (Primary HTS)]; format: functional
Coagulation factor XII = target: T2, Coagulation factor XII (Homo sapiens, UniProt P00748); format: functional;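 further: activated factor XIIa alpha cleaving a fluorogenic AMC peptide substrate; inhibitor potency from loss of enzyme activity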
T2 sequence (P00748 whole entry): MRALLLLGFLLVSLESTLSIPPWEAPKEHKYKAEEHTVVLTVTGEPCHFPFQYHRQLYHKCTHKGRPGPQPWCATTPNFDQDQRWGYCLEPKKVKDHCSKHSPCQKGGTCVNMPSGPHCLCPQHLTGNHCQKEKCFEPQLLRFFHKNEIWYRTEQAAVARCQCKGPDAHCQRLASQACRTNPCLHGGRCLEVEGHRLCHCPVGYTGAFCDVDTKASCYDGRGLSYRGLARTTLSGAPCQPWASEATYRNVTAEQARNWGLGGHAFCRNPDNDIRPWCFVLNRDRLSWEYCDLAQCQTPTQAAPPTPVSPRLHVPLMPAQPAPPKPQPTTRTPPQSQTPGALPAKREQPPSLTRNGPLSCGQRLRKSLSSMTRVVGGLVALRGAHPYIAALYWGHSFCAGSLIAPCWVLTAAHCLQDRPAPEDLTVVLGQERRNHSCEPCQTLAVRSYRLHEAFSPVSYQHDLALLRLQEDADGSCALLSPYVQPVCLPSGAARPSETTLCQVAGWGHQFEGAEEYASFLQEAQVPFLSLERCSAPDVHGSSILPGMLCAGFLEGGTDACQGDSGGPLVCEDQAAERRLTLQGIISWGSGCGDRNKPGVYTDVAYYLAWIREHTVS

[4] = target: T3, Calpain-2 catalytic subunit (Sus scrofa, UniProt P43367); test: pig calpain II inhibitor potency, dose response, biochemical, fluorogenic peptide substrate (AID 1420); format: functional
T3 sequence (P43367 whole entry): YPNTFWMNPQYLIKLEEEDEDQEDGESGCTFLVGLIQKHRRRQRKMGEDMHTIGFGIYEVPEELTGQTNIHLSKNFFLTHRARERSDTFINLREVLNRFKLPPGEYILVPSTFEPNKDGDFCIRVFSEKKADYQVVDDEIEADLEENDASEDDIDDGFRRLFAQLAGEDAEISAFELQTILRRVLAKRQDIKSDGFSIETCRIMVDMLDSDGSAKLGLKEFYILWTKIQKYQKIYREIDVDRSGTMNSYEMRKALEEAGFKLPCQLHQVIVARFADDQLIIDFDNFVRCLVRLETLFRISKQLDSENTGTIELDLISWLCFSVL

[5] = Luminescence Cell-Based Dose Response HTS to Identify Inhibitors of 5'UTR Stem-Loop Driven Prion Protein mRNA Translation in H4 Neuroglioblastoma Cells. [Related pubchem assays: 1827 (Project Summary), 1813 (Primary HTS)]; format: functional
Nonstructural protein 1 = Nonstructural protein 1 (Influenza A virus, UniProt Q194T2); format: functional, Influenza A virus (A/California/07/2009(H1N1))
Nonstructural protein 1, sequence (Q194T2 whole entry): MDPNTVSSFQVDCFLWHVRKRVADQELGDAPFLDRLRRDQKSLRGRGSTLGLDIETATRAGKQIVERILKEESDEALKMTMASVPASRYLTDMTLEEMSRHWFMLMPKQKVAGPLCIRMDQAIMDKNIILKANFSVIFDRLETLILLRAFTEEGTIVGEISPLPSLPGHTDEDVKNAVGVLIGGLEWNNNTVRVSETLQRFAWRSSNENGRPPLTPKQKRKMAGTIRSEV

H9c2 = test: cells; format: functional, cell-based; conditions: Rattus norvegicus, H9c2, Myocardium;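 further: confirmatory concentration-response retest of ultra-high-throughput screening hits for modulation of myocardial damage; cell death induced by hydrogen peroxide oxidative stress; compound pretreatment for 60 min then peroxide exposure for 2 h; potency is for protecting the cells against peroxide damage rather than for killing them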
[6] = inhibitors of firefly luciferase expression or activity, dose response, H4 neuroglioma cells, luminescence (AID 1990); format: functional, cell-based
[7] = inhibitors of SNCA 5'UTR-driven reporter translation, confirmation, H4 neuroglioma cells, luminescence (AID 1988); format: functional, cell-based
[8] = target: T4, Ubiquitin-conjugating enzyme E2 N (Homo sapiens, UniProt P61088); format: functional;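 further: Dose-response confirmation in a TR-FRET assay detecting UBC13-driven polyubiquitin chain formation, inhibition measured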
T4 sequence (P61088 whole entry): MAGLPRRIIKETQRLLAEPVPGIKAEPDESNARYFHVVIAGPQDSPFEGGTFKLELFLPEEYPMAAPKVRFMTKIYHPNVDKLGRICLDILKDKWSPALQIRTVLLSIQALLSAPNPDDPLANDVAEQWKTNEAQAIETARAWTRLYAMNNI

[9] = NIH-3T3 fibroblast cytotoxicity, dose response, cytotoxicity control, cell-based, fluorescence, Alamar Blue, secondary assay (AID 2327); format: functional;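 further: NIH-3T3 mouse fibroblasts cultured with fluconazole at 8 µg/mL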
[10] = THP-1 cell cytotoxicity, dose response, cytotoxicity control for non-replicating M. tuberculosis project (AID 489025); format: functional
[11] = C. albicans growth with fluconazole, confirmation, fluorescence, retest (AID 2467); format: functional, cell-based

SMILES: CC(C)Oc1cccc(C(=O)NC(=S)Nc2cccnc2)c1
- IC50 [1]: > 40 µM (not active)
- EC50 (Beta-galactosidase): > 40 µM (inactive)

SMILES: Cn1ncc(Oc2ccc([N+](=O)[O-])cc2)c(Cl)c1=O
- EC50 (H4): > 120 µM (not active)
- EC50 [2]: 25.9 µM (active)
- EC50 [3]: > 120 µM (not active)
- IC50 (Coagulation factor XII): > 50 µM (inactive)

SMILES: COc1ccc(N2CCN(S(=O)(=O)c3ccc(C(=O)NC4CCCC4)cc3)CC2)cc1
- IC50 (Coagulation factor XII): > 50 µM (inactive)

SMILES: O=C(NC(=S)Nc1ccc(S(=O)(=O)Nc2nccs2)cc1)c1ccccc1F
- IC50 (Coagulation factor XII): > 50 µM (inactive)

SMILES: Cc1cc(C)c(O)c(-c2cc(C(=O)NCc3ccccc3)[nH]n2)c1
- IC50 [4]: 3.02 µM (not active)

SMILES: O=C(CN1C(=O)C2C3C=CC(C3)C2C1=O)Nc1nc(-c2ccccn2)cs1 (stereo not drawn)
- EC50 [5]: > 120 µM (not active)
- IC50 (Nonstructural protein 1): 10.5 µM (active)
- IC50 (H9c2): 15.1 µM (active)
- EC50 [6]: 15.4 µM (active)
- EC50 [7]: 12.2 µM (active)

SMILES: O=C(COC(=O)c1ccc(Br)o1)c1ccc(S(=O)(=O)N2CCCCC2)cc1
- IC50 [1]: 23.2 µM (not active)
- EC50 (Beta-galactosidase): > 40 µM (inactive)

SMILES: CCCc1nc2[nH]nc(N)c2c2c1CCC2
- IC50 (Coagulation factor XII): > 50 µM (inactive)

SMILES: CCC(C)(C)NC(=O)C(c1ccc(C)o1)N(Cc1ccc2c(c1)OCO2)C(=O)c1snc(C(N)=O)c1N (stereo not drawn)
- IC50 [8]: > 20 µM (inactive)

SMILES: c1cnc2c(c1)ccc1cccnc12
- EC50 [9]: 6.76 µM (inconclusive)
- IC50 (Nonstructural protein 1): 1.03 µM (active)

SMILES: O=C(NNC(=O)C12CC3CC(CC(C3)C1)C2)c1cnccn1
- EC50 [9]: > 160 µM (inactive)
- CC50 [10]: 39.8 µM (active)
- EC50 [11]: > 38 µM (not active)
